The text below walks through data of ChEMBL document CHEMBL6078685, “Potential COX-2 inhibitors modulating NF-κB/MAPK signaling pathways: Design, synthesis and evaluation of anti-inflammatory activity of Pterostilbene-carboxylic acid derivatives with an oxime ether moiety” (Bioorg Med Chem, 2025).

The test system of series [1] is RAW264.7. Briefly: Inhibition of LPS-induced NO release in mouse RAW264.7 cells at 20 uM preincubated with compound for 48 hrs followed by LPS addition and measured after 24 hrs by nitric oxide assay relative to control. The format is functional. The settings on record: time 72 hrs.
In series [2] the test system is RAW264.7. Briefly: Cytotoxicity against mouse RAW264.7 cells assessed as reduction in cell viability at 20 uM incubated for 48 hrs by MTT method. It counts as toxicity, cell-based. The note with it: raw264.7, 48 h.
The test system of series [3] is RAW264.7. Briefly: Inhibition of LPS-induced NO release in mouse RAW264.7 cells preincubated with compound for 48 hrs followed by LPS addition and measured after 24 hrs by nitric oxide assay. It counts as functional, cell-based.
The test system of series [4] is RAW264.7. The experiment in a line: cells. The settings on record: Mus musculus.
Description: Antiinflammatory activity against mouse RAW264.7 cells assessed as inhibition of LPS-induced IIL-1beta secretion pretreated with LPS for 3 hrs followed by compound addition and measured after 24 hrs by ELISA
Series [5] deals with RAW264.7. Briefly: Antiinflammatory activity against mouse RAW264.7 cells assessed as decrease in LPS-induced TNF-alpha release preincubated for 3 hrs followed by LPS addition for 30 mins by Western blotting analysis. The format is functional, cell-based. The note with it: dose 4-16 µM.
For series [6], the system named is RAW264.7. Briefly: Downregulation of iNOS expression in LPS-induced mouse RAW264.7 cells preincubated for 3 hrs followed by LPS addition for 30 mins by Western blotting analysis. The note with it: time 3.5 hrs. It counts as functional, cell-based.
The subject of series [7] is RAW264.7. The experiment in a line: cells. The settings on record: Mus musculus. The source holds these as a separate data set.
Description: Antiinflammatory activity against mouse RAW264.7 cells assessed as inhibition of LPS-induced IIL-6 secretion pretreated with LPS for 3 hrs followed by compound addition and measured after 24 hrs by ELISA
Series [8] concerns RAW264.7. Briefly: Antiinflammatory activity against mouse RAW264.7 cells assessed as decrease in LPS-induced IIL-1beta release preincubated for 3 hrs followed by LPS addition for 30 mins by Western blotting analysis. The note with it: dose 4-16 µM, time 3.5 hrs. The format is functional, cell-based.
Series [9] relates to RAW264.7. The experiment in a line: Antiinflammatory activity against mouse RAW264.7 cells assessed as decrease in LPS-induced IIL-6 release preincubated for 3 hrs followed by LPS addition for 30 mins by Western blotting analysis. It counts as functional, cell-based. The settings on record: dose 4-16 µM, time 3.5 hrs.
For series [10], the system named is RAW264.7. Briefly: cells. The settings on record: Mus musculus. The source holds these as a separate data set.
Description: Antiinflammatory activity against mouse RAW264.7 cells assessed as inhibition of LPS-induced TNF-alpha secretion pretreated with LPS for 3 hrs followed by compound addition and measured after 24 hrs by ELISA
In series [11] the test system is RAW264.7. Briefly: Downregulation of COX-2 expression in LPS-induced mouse RAW264.7 cells preincubated for 3 hrs followed by LPS addition for 30 mins by Western blotting analysis. The format is functional, cell-based. The settings on record: time 3.5 hrs.

For `COc1cc(/C=C/c2ccc(OCC(=O)O)cc2)c(/C=N/OCc2ccc(Br)c(F)c2)c(OC)c1`, in [1], the inhibition at 20 µM is 25.8%. In addition, the Activity result in series [2] is “Non-toxic”.
`CCOC(=O)COc1ccc(/C=C/c2cc(OC)cc(OC)c2/C=N/OCc2ccc(Cl)c(F)c2)cc1`: the inhibition at 20 µM in series [1] was 28.1%. Moreover, in series [2], the Activity result is reported as “Non-toxic”.
`COc1cc(/C=C/c2ccc(OCC(=O)NCCCO)cc2)c(/C=N/OCc2ccc(Cl)c(F)c2)c(OC)c1`: in [1], the inhibition at 20 µM is 61%. For the same compound, the Activity entry in [2] was “Non-toxic”. In series [3], the IC50 is 17.4 µM.
For the compound `C#CCO/N=C/c1c(/C=C/c2ccc(OCC(=O)OCC)cc2)cc(OC)cc1OC`, the inhibition at 20 µM in [1] stood at 21.8%. Also, the Activity entry in [2] is on record as “Non-toxic”.
Consider `CCNC(=O)COc1ccc(/C=C/c2cc(OC)cc(OC)c2/C=N/OCc2ccccc2)cc1`, for which the inhibition at 20 µM in [1] stood at 71.3%. The Activity result in series [2] is “Non-toxic”. For the same compound, the IC50 in series [3] was 12.3 µM.
Take `COc1cc(/C=C/c2ccc(OCC(=O)O)cc2)c(/C=N/OCc2ccccc2)c(OC)c1`: the inhibition at 20 µM in series [1] came out at 25.2%. Also, in series [2], the Activity entry was “Non-toxic”.
`COc1cc(/C=C/c2ccc(OCC(=O)O)cc2)c(/C=N/OCc2ccc(F)cc2)c(OC)c1`: the inhibition at 20 µM in series [1] is 26.1%. Further, in [2], the Activity entry is “Non-toxic”.
The corresponding values for `C#CCO/N=C/c1c(/C=C/c2ccc(OCC(=O)O)cc2)cc(OC)cc1OC` are 22.2% and “Non-toxic”.
With `COc1cc(/C=C/c2ccc(OCC(=O)NCCCO)cc2)c(/C=N/OCc2ccc(Br)c(F)c2)c(OC)c1`, the inhibition at 20 µM in series [1] was determined as 48%. The Activity entry in series [2] is reported as “Non-toxic”.
With `CCNC(=O)COc1ccc(/C=C/c2cc(OC)cc(OC)c2/C=N/OCc2ccc(Cl)cc2)cc1`, the inhibition at 20 µM in series [1] was 49.2%. Also, the Activity entry in [2] is listed as “Non-toxic”.
Take `COc1cc(/C=C/c2ccc(OCC(=O)NCCCO)cc2)c(/C=N/OCc2ccc(Cl)cc2)c(OC)c1`: the inhibition at 20 µM in series [1] stood at 64.6%. Also, the Activity result in series [2] is listed as “Non-toxic”. In series [3], the IC50 came out at 18.1 µM.
`CCOC(=O)COc1ccc(/C=C/c2cc(OC)cc(OC)c2/C=N/OCc2ccc(C)cc2)cc1`: the inhibition at 20 µM in series [1] was found to be 20%. For the same compound, the Activity entry in series [2] was “Non-toxic”.
The corresponding values for `CCCCO/N=C/c1c(/C=C/c2ccc(OCC(=O)OCC)cc2)cc(OC)cc1OC` are 17.2% and “Non-toxic”.
With `COc1cc(/C=C/c2ccc(OCC(=O)O)cc2)c(/C=N/OCc2ccc(C)cc2)c(OC)c1`, in series [1], the inhibition at 20 µM was 18.9%. Moreover, the Activity entry in series [2] is listed as “Non-toxic”.
With `CCOC(=O)COc1ccc(/C=C/c2cc(OC)cc(OC)c2/C=N/OCc2ccc(C(F)(F)F)cc2)cc1`, the inhibition at 20 µM in series [1] is 18.6%. Besides, the Activity result in series [2] is on record as “Non-toxic”.
For `CCCCO/N=C/c1c(/C=C/c2ccc(OCC(=O)O)cc2)cc(OC)cc1OC` the same measures were 20.2% and “Non-toxic”.
In the case of `COc1cc(/C=C/c2ccc(OCC(=O)NCCCO)cc2)c(/C=N/OCc2ccc(F)cc2)c(OC)c1`, the IC50 in series [4] worked out at 7.36 µM; in series [7], 6.76 µM; in series [3], 9.87 µM; in [10] it was 9.14 µM. Moreover, the inhibition at 20 µM in series [1] amounted to 86.7%. In addition, the Activity entry in series [2] is “Non-toxic”; in series [5], “Dose-dependent-effect”; in series [6], “Dose-dependent-effect”; in series [8], “Dose-dependent-effect”; in [9] it was “Dose-dependent-effect”; in [11] it was “Dose-dependent-effect”.
Turning to `CCNC(=O)COc1ccc(/C=C/c2cc(OC)cc(OC)c2/C=N/OCc2ccc(F)cc2)cc1`, in [1], the inhibition at 20 µM stood at 68.5%. For the same compound, the Activity result in series [2] is “Non-toxic”. For the same compound, the IC50 in series [3] was 14.6 µM.
Take `CCOC(=O)COc1ccc(/C=C/c2cc(OC)cc(OC)c2/C=N/OCc2ccc(F)cc2)cc1`: in series [1], the inhibition at 20 µM is 28.6%. In [2], the Activity result was “Non-toxic”.
Turning to `COc1cc(/C=C/c2ccc(OCC(=O)O)cc2)c(/C=N/OCc2ccc(Cl)c(F)c2)c(OC)c1`, in [1], the inhibition at 20 µM amounted to 23.8%. Also, the Activity result in [2] is listed as “Non-toxic”.
In the case of `CCOC(=O)COc1ccc(/C=C/c2cc(OC)cc(OC)c2/C=N/OCc2ccc(Br)cc2)cc1`, in series [1], the inhibition at 20 µM worked out at 19.5%. Besides, in series [2], the Activity entry is on record as “Non-toxic”.
For `COc1cc(/C=C/c2ccc(OCC(=O)O)cc2)c(/C=N/OCc2ccc(Cl)cc2)c(OC)c1` the same measures were 24.8% and “Non-toxic”.
With `COc1cc(/C=C/c2ccc(OCC(=O)NCCCO)cc2)c(/C=N/OCc2ccccc2)c(OC)c1`, the inhibition at 20 µM in series [1] was determined as 34.7%. Moreover, in series [2], the Activity result is recorded as “Non-toxic”.
Turning to `CCOC(=O)COc1ccc(/C=C/c2cc(OC)cc(OC)c2/C=N/OCc2ccccc2)cc1`, the inhibition at 20 µM in [1] worked out at 37.8%. In series [2], the Activity result is “Non-toxic”.
As for `CCCCCC(=O)OCCCNC(=O)COc1ccc(/C=C/c2cc(OC)cc(OC)c2/C=N/OCc2ccc(F)cc2)cc1`, the inhibition at 20 µM in [1] came to 33.1%. Also, the Activity result in series [2] is on record as “Non-toxic”.
For `COc1cc(/C=C/c2ccc(OCC(=O)O)cc2)c(/C=N/OCc2ccc(Br)cc2)c(OC)c1` the same measures were 13.7% and “Non-toxic”.
Regarding `CCNC(=O)COc1ccc(/C=C/c2cc(OC)cc(OC)c2/C=N/OCc2ccc(Br)c(F)c2)cc1`, in series [1], the inhibition at 20 µM was 42.1%. In addition, the Activity entry in [2] is reported as “Non-toxic”.
As to `CCCC(=O)OCCCNC(=O)COc1ccc(/C=C/c2cc(OC)cc(OC)c2/C=N/OCc2ccc(F)cc2)cc1`, the inhibition at 20 µM in series [1] turned out to be 47.1%. Besides, the Activity entry in series [2] is reported as “Non-toxic”.
For `CCOC(=O)COc1ccc(/C=C/c2cc(OC)cc(OC)c2/C=N/OCc2ccc(Br)c(F)c2)cc1` the same measures were 29.3% and “Non-toxic”.
In the case of `Cc1ccc(-c2cc(C(F)(F)F)nn2-c2ccc(S(N)(=O)=O)cc2)cc1` [CELECOXIB], the inhibition at 20 µM in series [1] amounted to 29.4%.
As for `CCOC(=O)COc1ccc(/C=C/c2cc(OC)cc(OC)c2/C=N/OCc2ccc(Cl)cc2)cc1`, the inhibition at 20 µM in series [1] came to 29%. Moreover, the Activity result in series [2] is reported as “Non-toxic”.
On to `CCCCCCCC(=O)OCCCNC(=O)COc1ccc(/C=C/c2cc(OC)cc(OC)c2/C=N/OCc2ccc(F)cc2)cc1`, for which the inhibition at 20 µM in series [1] worked out at 20.8%. Also, in series [2], the Activity result was “Non-toxic”.
As for `COc1cc(/C=C/c2ccc(OCC(=O)O)cc2)c(/C=N/OCc2ccc(C(F)(F)F)cc2)c(OC)c1`, the inhibition at 20 µM in series [1] worked out at 21.8%. Further, the Activity result in [2] is recorded as “Non-toxic”.
In the case of `CCNC(=O)COc1ccc(/C=C/c2cc(OC)cc(OC)c2/C=N/OCc2ccc(Cl)c(F)c2)cc1`, the inhibition at 20 µM in series [1] came out at 40.6%. Also, the Activity entry in series [2] is “Non-toxic”.
